Laboratory results from publication PMC9643456, “Matching amino acids membrane preference profile to improve activity of antimicrobial peptides” (Communications Biology, 2022).
Converted amounts (≈) assume the structure as drawn. Where two headings read alike, the source gives them in different places. Square brackets hold non-standard residues; d marks the D form. Ends that are not written are not given here. Peptide text beside a SMILES is read from it.

Assays:
MDR S. aureus = test: microbe, parasite or virus in culture; conditions: for MIC in 0.2% albumin and 0.01% AcOH added CLSI standard condition, MDR S. aureus: CAMHB plus 0.2% bovine serum albumin and 0.01% acetic acid, values marked * in Table 2; for Minimum inhibitory concentrations, MDR S. aureus: CLSI broth microdilution, CAMHB with 50 mg/L Ca2+, 10 mg/L Mg2+, 5 × 10^5 CFU/ml, 18 h 37 °C, triplicate, strain KCCM 40510
Summary of the method: (§1)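 Broth microdilution per CLSI in cation-adjusted Mueller–Hinton broth with added calcium (50 mg/L) and magnesium (10 mg/L); mid-log bacteria at a final 5 × 10^5 CFU/ml were incubated with peptide for 18 h at 37 °C. MIC was the lowest concentration without visible turbidity, in triplicate.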

MDR P. aeruginosa = test: microbe, parasite or virus in culture; conditions: for MIC in 0.2% albumin and 0.01% AcOH added CLSI standard condition, MDR P. aeruginosa: CAMHB plus 0.2% bovine serum albumin and 0.01% acetic acid, values marked * in Table 2; for Minimum inhibitory concentrations, MDR P. aeruginosa: CLSI broth microdilution, CAMHB with 50 mg/L Ca2+, 10 mg/L Mg2+, 5 × 10^5 CFU/ml, 18 h 37 °C, no visible turbidity, triplicate, strain CCARM 2180
Summary of the method: as §1

MDR A. baumannii = test: microbe, parasite or virus in culture; conditions: for MIC in 0.2% albumin and 0.01% AcOH added CLSI standard condition, MDR A. baumannii: CAMHB plus 0.2% bovine serum albumin and 0.01% acetic acid, values marked * in Table 2; for Minimum inhibitory concentrations, MDR A. baumannii: CLSI broth microdilution, CAMHB with 50 mg/L Ca2+, 10 mg/L Mg2+, 5 × 10^5 CFU/ml, 18 h 37 °C, triplicate, strain ATCC BAA-1605
Summary of the method: as §1

MDR E. faecalis = test: microbe, parasite or virus in culture; conditions: for MIC in 0.2% albumin and 0.01% AcOH added CLSI standard condition, MDR E. faecalis: CAMHB plus 0.2% bovine serum albumin and 0.01% acetic acid, values marked * in Table 2; for Minimum inhibitory concentrations, MDR E. faecalis: CLSI broth microdilution, CAMHB with 50 mg/L Ca2+, 10 mg/L Mg2+, 5 × 10^5 CFU/ml, 18 h 37 °C, triplicate, strain ATCC 51575
Summary of the method: as §1

human red blood cells = test: Hemolytic activity; format: cell-based
Summary of the method: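 Peptides (100 μM down to 0.78 μM) were incubated with 4% final human erythrocytes in PBS for 18 h at 37 °C. Supernatant absorbance at 540 nm after centrifugation was scaled to 1% Triton X-100 (100%) and no peptide (0%); melittin served as positive control; triplicate runs.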

Molecule | MIC in 0.2% albumin and 0.01% AcOH added CLSI standard condition, MDR S. aureus (MDR S. aureus) | Minimum inhibitory concentrations, MDR S. aureus (MDR S. aureus) | MIC in 0.2% albumin and 0.01% AcOH added CLSI standard condition, MDR P. aeruginosa (MDR P. aeruginosa) | Minimum inhibitory concentrations, MDR P. aeruginosa (MDR P. aeruginosa) | MIC in 0.2% albumin and 0.01% AcOH added CLSI standard condition, MDR A. baumannii (MDR A. baumannii) | Minimum inhibitory concentrations, MDR A. baumannii (MDR A. baumannii) | MIC in 0.2% albumin and 0.01% AcOH added CLSI standard condition, MDR E. faecalis (MDR E. faecalis) | Minimum inhibitory concentrations, MDR E. faecalis (MDR E. faecalis) | Hemolysis percent, 50 μM (human red blood cells; red cells of human, 18 h, 50 μM) | Hemolysis percent, 25 μM (human red blood cells; red cells of human, 18 h, 25) | Hemolysis percent, 100 μM (human red blood cells; red cells of human, 18 h, 100) | Hemolysis percent, 50 μM (human red blood cells; red cells of human, 18 h, 50) | actual MIC as weight/volume concentration (MDR A. baumannii; molar MIC converted with the molecular weight (melittin 2.85 kDa, WCopW5 1.47 kDa)) | Hemolysis percent, 25 μM (human red blood cells) | Hemolysis percent, 50 μM (human red blood cells) | Hemolysis percent, 100 μM (human red blood cells)
WLLLLLRRR-NH2 [AcWL-1] | 5 µM | 10 µM | > 20 µM | > 20 µM | 1.25 µM | 2.5 µM | 5 µM | 10 µM | 20.52 ±1.25% | 11.89 ±1.24% | 36.35 ±3.00% | – | – | – | – | –
WLLLLWRRR-NH2 [AcWL-3] | 2.5 µM | 5 µM | > 20 µM | > 20 µM | 0.63 µM | 2.5 µM | 2.5 µM | 5 µM | – | 16.44 ±0.89% | 36.71 ±3.91% | 19.80 ±0.76% | – | – | – | –
CC[C@@H](C)[C@@H](NC(=O)[C@@H](Cc1c[nH]c2ccccc12)NC(=O)[C@@H](CC(C)C)NC(=O)[C@H](N)CC(C)C)C(=O)NCC(=O)N[C@H](CC(C)C)C(=O)N[C@H](CCCNC(=N)N)C(=O)N[C@H](CCCCN)C(=O)N[C@H](CCCCN)C(=O)N[C@H](CCCNC(=N)N)C(N)=O [WCopW13] (H-[dL][dL][dW][dI]G[dL][dR][dK][dK][dR]-NH2) | – | > 20 µM | – | > 20 µM | – | 5 µM (≈ 6.41 µg/mL) | – | > 20 µM | – | 1.00% | 1.21% | 1.13% | – | – | – | –
CC[C@@H](C)[C@@H](NC(=O)[C@@H](Cc1c[nH]c2ccccc12)NC(=O)[C@@H](CC(C)C)NC(=O)[C@@H](CC(C)C)NC(=O)[C@H](N)Cc1c[nH]c2ccccc12)C(=O)NCC(=O)N[C@H](CC(C)C)C(=O)N[C@H](CCCNC(=N)N)C(=O)N[C@H](CCCCN)C(=O)N[C@H](CCCCN)C(=O)N[C@H](CCCNC(=N)N)C(N)=O [WCopW5] (H-[dW][dL][dL][dW][dI]G[dL][dR][dK][dK][dR]-NH2) | – | 1.25 µM (≈ 1.83 µg/mL) | – | 10 µM (≈ 14.7 µg/mL) | – | 1.25 µM (≈ 1.83 µg/mL) | – | 2.5 µM (≈ 3.67 µg/mL) | – | 2.99% | 11.60% | 7.77% | 1.84 mg/L | – | – | –
CC[C@@H](C)[C@@H](NC(=O)[C@@H](Cc1c[nH]c2ccccc12)NC(=O)[C@@H](CC(C)C)NC(=O)[C@@H](CC(C)C)NC(=O)[C@H](N)Cc1c[nH]c2ccccc12)C(=O)NCC(=O)N[C@H](CC(C)C)C(=O)N[C@H](CCCNC(=N)N)C(=O)N[C@H](CCCCN)C(=O)N[C@H](CCCCN)C(N)=O [WCopW8] (H-[dW][dL][dL][dW][dI]G[dL][dR][dK][dK]-NH2) | – | 2.5 µM (≈ 3.28 µg/mL) | – | > 20 µM | – | 5 µM (≈ 6.56 µg/mL) | – | 5 µM (≈ 6.56 µg/mL) | – | 3.85% | 15.04% | 8.51% | – | – | – | –
NH2 wM l l w i g l r k k r CONH2 [WCopW15, WCopW analog] | – | 1.25 µM | – | 10 µM | – | 1.25 µM | – | 2.5 µM | – | – | – | – | – | 0.65% | 1.16% | 4.04%
CC[C@@H](C)[C@@H](NC(=O)[C@@H](Cc1c[nH]c2ccccc12)NC(=O)[C@@H](C)NC(=O)[C@@H](C)NC(=O)[C@H](N)Cc1c[nH]c2ccccc12)C(=O)NCC(=O)N[C@H](CC(C)C)C(=O)N[C@H](CCCNC(=N)N)C(=O)N[C@H](CCCCN)C(=O)N[C@H](CCCCN)C(=O)N[C@H](CCCNC(=N)N)C(N)=O [WCopW20] (H-[dW][dA][dA][dW][dI]G[dL][dR][dK][dK][dR]-NH2) | – | > 20 µM | – | > 20 µM | – | 2.5 µM (≈ 3.46 µg/mL) | – | > 20 µM | – | 0.11% | 0.45% | 0.13% | – | – | – | –
